This note sets out measurements from PMC9683047, “Design, synthesis and biological evaluation of 4-aminoquinoline derivatives as receptor-interacting protein kinase 2 (RIPK2) inhibitors” (Journal of Enzyme Inhibition and Medicinal Chemistry, 2022).

The term IC50 denotes the concentration at which inhibition is half-maximal. Higher therefore signals a need for much substance.

The target in assay [1] is T1, RIPK2 (Homo sapiens, UniProt O43353).
T1 construct: purchased Promega
Put plainly: Lipophilic ligand efficiency (LipE). Conditions: LipE = pIC50 − ClogP.

Assay [2] addresses T1, RIPK2. The assay can be described thus: RIPK2 kinase inhibition assay (ADP-Glo). It counts as biochemical. The conditions noted are these: mean ± SD from two separate experiments. The protocol:
RIPK2 kinase activity was analysed using the ADP-Glo™ Assay Kit (RIPK2 Kinase Enzyme System, Promega, USA). Reactions were performed according to the instructions. Specific signal was calculated by subtracting values in the wells without protein and inhibitor from the values in the test wells.
A general note: In ADP-Glo the light output rises with the ADP produced.

A further assay concerns the target T2, RIPK1 (Homo sapiens, UniProt Q13546).
T2 sequence (Q13546 1-671): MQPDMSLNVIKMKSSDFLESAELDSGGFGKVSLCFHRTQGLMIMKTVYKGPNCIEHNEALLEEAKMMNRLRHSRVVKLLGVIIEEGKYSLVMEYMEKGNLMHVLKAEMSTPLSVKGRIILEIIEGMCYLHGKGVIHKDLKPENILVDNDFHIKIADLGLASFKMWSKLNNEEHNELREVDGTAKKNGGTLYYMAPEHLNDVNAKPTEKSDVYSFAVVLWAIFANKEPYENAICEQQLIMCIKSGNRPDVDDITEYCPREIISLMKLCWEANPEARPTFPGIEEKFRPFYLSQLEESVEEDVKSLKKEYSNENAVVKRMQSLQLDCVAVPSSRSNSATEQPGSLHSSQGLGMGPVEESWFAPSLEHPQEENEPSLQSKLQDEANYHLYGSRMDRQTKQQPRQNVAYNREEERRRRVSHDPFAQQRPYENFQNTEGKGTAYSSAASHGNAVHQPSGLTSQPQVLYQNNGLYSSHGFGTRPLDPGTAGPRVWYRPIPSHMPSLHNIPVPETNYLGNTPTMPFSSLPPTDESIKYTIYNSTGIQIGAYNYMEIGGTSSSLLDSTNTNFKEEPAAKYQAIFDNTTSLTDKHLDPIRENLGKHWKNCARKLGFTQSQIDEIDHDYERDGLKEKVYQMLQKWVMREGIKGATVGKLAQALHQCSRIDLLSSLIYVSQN
The assay can be described thus: RIPK1 inhibition rate at 1 µM. It counts as biochemical. The protocol: Table 4. Selectivity, ClogP and LipE of compound 14, 15, 21, 32, 36. | column: RIPK1 IR@1µM (%)

T1 sequence (O43353 whole entry): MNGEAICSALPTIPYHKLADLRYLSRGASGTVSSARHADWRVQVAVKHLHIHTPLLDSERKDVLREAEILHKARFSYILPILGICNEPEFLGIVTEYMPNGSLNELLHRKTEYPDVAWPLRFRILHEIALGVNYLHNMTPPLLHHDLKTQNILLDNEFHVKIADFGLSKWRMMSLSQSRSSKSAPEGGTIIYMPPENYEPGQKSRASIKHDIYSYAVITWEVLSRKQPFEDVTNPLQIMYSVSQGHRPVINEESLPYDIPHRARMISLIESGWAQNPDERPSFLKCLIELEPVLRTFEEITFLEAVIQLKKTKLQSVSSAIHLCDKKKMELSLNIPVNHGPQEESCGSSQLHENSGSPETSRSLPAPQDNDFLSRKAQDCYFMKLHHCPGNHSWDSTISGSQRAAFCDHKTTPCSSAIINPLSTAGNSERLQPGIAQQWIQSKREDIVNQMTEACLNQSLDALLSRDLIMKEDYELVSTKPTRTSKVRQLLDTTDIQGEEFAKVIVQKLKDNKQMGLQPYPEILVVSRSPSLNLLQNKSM

Compound `Brc1ccc2nccc(Nc3cccnc3)c2c1` [Compound 8, 6-Bromo-N-(pyridin-3-yl)quinolin-4-amine] yielded a LipE on RIPK2 [1] of 3.68. For the same compound, at RIPK2 [2], the IC50 is 151 ± 30.1 nM.

In the case of `Cc1cscc1-c1ccc2nccc(Nc3ccc4scnc4c3)c2c1` [Compound 24, N-(6–(4-methylthiophen-3-yl)quinolin-4-yl)benzo[d]thiazol-5-amine], the LipE on RIPK2 [1] is recorded as 2.37. In addition, at RIPK2 [2], the IC50 worked out at 19.6 ± 12 nM.

As to `Cc1n[nH]cc1-c1ccc2nccc(Nc3ccc4scnc4c3)c2c1` [Compound 21, N-(6–(3-methyl-1H-pyrazol-4-yl)quinolin-4-yl)benzo[d]thiazol-5-amine], the “RIPK1 IR@1µM (%)” value at RIPK1 was below 1%. For the same compound, the LipE at RIPK2 [1] was determined as 4.99. Also, half-maximal inhibition against RIPK2 [2] (IC50) was put at 4.1 ± 0.9 nM.

As for `Cn1cc(-c2ccc3nccc(Nc4ccc5scnc5c4)c3c2)cn1` [Compound 19, N-(6–(1-methyl-1H-pyrazol-4-yl)quinolin-4-yl)benzo[d]thiazol-5-amine], the LipE on RIPK2 [1] came to 3.08. For the same compound, it took 16.4 ± 1.6 nM to reach half-maximal inhibition at RIPK2 [2] (IC50).

With `c1cc(Nc2ccc3scnc3c2)c2cc(-c3ccc4[nH]ccc4c3)ccc2n1` [Compound 25, N-(6-(1H-indol-5-yl)quinolin-4-yl)benzo[d]thiazol-5-amine], the LipE on RIPK2 [1] came to 3.87. Further, the IC50 against RIPK2 [2] turned out to be 11.1 ± 3.6 nM.

In turn, `Brc1ccc2nccc(Nc3ccc4[nH]ccc4c3)c2c1` [Compound 13, 6-Bromo-N-(1H-indol-5-yl)quinolin-4-amine] displayed a LipE on RIPK2 [1] of 2.82. Also, on RIPK2 [2], 118 ± 21.5 nM corresponded to half-maximal inhibition (IC50).

The compound `COc1cc(Nc2ccnc3ccc(-c4ccccn4)cc23)cc(OC)c1OC` [Compound 33, 6-(Pyridin-2-yl)-N-(3,4,5-trimethoxyphenyl)quinolin-4-amine] gave a LipE at RIPK2 [1] of 3.26. At RIPK2 [2], this compound registered an IC50 of 12.4 ± 8.9 nM.

The compound `COc1cccc(Nc2ccnc3ccc(Br)cc23)c1` [Compound 2, 6-Bromo-N-(3-methoxyphenyl)quinolin-4-amine] showed a LipE at RIPK2 [1] of 3.10. The same compound gave an IC50 at RIPK2 [2] of 54.8 ± 3.4 nM.

Turning to `c1ncc(-c2ccc3nccc(Nc4ccc5scnc5c4)c3c2)cn1` [Compound 17, N-(6-(pyrimidin-5-yl)quinolin-4-yl)benzo[d]thiazol-5-amine], the LipE on RIPK2 [1] came to 2.80. Further, the IC50 at RIPK2 [2] is 1.5 ± 0.3 nM.

The compound `c1ccc2ncc(-c3ccc4nccc(Nc5ccc6scnc6c5)c4c3)cc2c1` [Compound 30, N-([3,6'-biquinolin]-4'-yl)benzo[d]thiazol-5-amine] yielded a LipE on RIPK2 [1] of 2.80. The compound further showed an IC50 at RIPK2 [2] of 41.7 ± 19 nM.

`COc1cc(Nc2ccnc3ccc(Br)cc23)cc(OC)c1OC` [Compound 6, 6-Bromo-N-(3,4,5-trimethoxyphenyl)quinolin-4-amine] displayed a LipE at RIPK2 [1] of 3.63. At RIPK2 [2], this compound registered an IC50 of 10.7 ± 0.1 nM.

Compound `COc1cc(Nc2ccnc3ccc(-c4cncnc4)cc23)cc(OC)c1OC` [Compound 34, 6-(Pyrimidin-5-yl)-N-(3,4,5-trimethoxyphenyl)quinolin-4-amine] registered a LipE on RIPK2 [1] of 4.58. On RIPK2 [2], this compound yielded an IC50 of 11 ± 1.7 nM.

In the case of `c1ccc(-c2ccc3nccc(Nc4ccc5scnc5c4)c3c2)cc1` [Compound 18, N-(6-phenylquinolin-4-yl)benzo[d]thiazol-5-amine], at RIPK2 [1], the LipE worked out at 5.81. This compound had an IC50 against RIPK2 [2] of 24 ± 11.6 nM.

`Brc1ccc2nccc(Nc3ccncc3)c2c1` [Compound 9, 6-Bromo-N-(pyridin-4-yl)quinolin-4-amine]: the LipE on RIPK2 [1] is given as 3.24. This compound came in with an IC50 at RIPK2 [2] of 421 ± 106 nM.

`c1cc(-c2ccc3nccc(Nc4ccc5scnc5c4)c3c2)c2cc[nH]c2c1` [Compound 26, N-(6-(1H-indol-4-yl)quinolin-4-yl)benzo[d]thiazol-5-amine] yielded a LipE at RIPK2 [1] of 5.00. For the same compound, the IC50 on RIPK2 [2] amounted to 9.4 ± 1.1 nM.

The compound `c1cc(Nc2ccc3scnc3c2)c2cc(-c3cn[nH]c3)ccc2n1` [Compound 20, N-(6-(1H-pyrazol-4-yl)quinolin-4-yl)benzo[d]thiazol-5-amine] displayed a LipE at RIPK2 [1] of 3.04. At RIPK2 [2], this compound showed an IC50 of 8.2 ± 1.6 nM.

As to `COc1cc(Nc2ccnc3ccc(-c4cccnc4)cc23)cc(OC)c1OC` [Compound 32, 6-(Pyridin-3-yl)-N-(3,4,5-trimethoxyphenyl)quinolin-4-amine], the “RIPK1 IR@1µM (%)” value at RIPK1 was 19%. Besides, the LipE on RIPK2 [1] was determined as 4.30. The compound also returned an IC50 against RIPK2 [2] of 2.4 ± 0.2 nM.

In turn, `Brc1ccc2nccc(Nc3ccc4ncsc4c3)c2c1` [Compound 11, N-(6-bromoquinolin-4-yl)benzo[d]thiazol-6-amine] displayed a LipE at RIPK2 [1] of 3.21. Besides, at RIPK2 [2], the midpoint of inhibition, the IC50, lay at 82.3 ± 12.2 nM.

As for `Cc1nn(C)cc1-c1ccc2nccc(Nc3ccc4scnc4c3)c2c1` [Compound 23, N-(6–(1,3-dimethyl-1H-pyrazol-4-yl)quinolin-4-yl)benzo[d]thiazol-5-amine], the LipE at RIPK2 [1] came to 2.92. In addition, the IC50 at RIPK2 [2] came to 9.5 ± 3.7 nM.

As for `c1cc(Nc2ccc3scnc3c2)c2cc(-c3ccnc4[nH]ccc34)ccc2n1` [Compound 28, N-(6-(1H-pyrrolo[2,3-b]pyridin-4-yl)quinolin-4-yl)benzo[d]thiazol-5-amine], the LipE at RIPK2 [1] came to 3.46. For the same compound, at RIPK2 [2], 7.3 ± 3.5 nM corresponded to half-maximal inhibition (IC50).

For `CC(=O)c1cccc(Nc2ccnc3ccc(Br)cc23)c1` [Compound 4, 1–(3-((6-Bromoquinolin-4-yl)amino)phenyl)ethan-1-one], the LipE on RIPK2 [1] was determined as 3.50. Further, the IC50 against RIPK2 [2] was 92.5 ± 22.1 nM.

Consider `Brc1ccc2nccc(Nc3ccc4cn[nH]c4c3)c2c1` [Compound 12, 6-Bromo-N-(1H-indazol-6-yl)quinolin-4-amine], for which the LipE on RIPK2 [1] amounted to 3.49. The compound also had an IC50 on RIPK2 [2] of 22.2 ± 5.2 nM.

Consider `Brc1ccc2nccc(Nc3ccccc3)c2c1` [Compound 1, 6-Bromo-N-phenylquinolin-4-amine], for which, on RIPK2 [1], the LipE worked out at 2.57. Also, on RIPK2 [2], inhibition was half-maximal at 243 ± 14.8 nM (IC50).

On to `CC(C)Oc1cccc(Nc2ccnc3ccc(Br)cc23)c1` [Compound 3, 6-Bromo-N-(3-isopropoxyphenyl)quinolin-4-amine], for which, on RIPK2 [2], the IC50 is above 1000 nM and the “RIPK2 IC50” value is “loss of the activity”.

`c1ccc(-c2ccc3nccc(Nc4ccc5scnc5c4)c3c2)nc1` [Compound 16, N-(6-(pyridin-2-yl)quinolin-4-yl)benzo[d]thiazol-5-amine]: at RIPK2 [1], the LipE was 4.11. At RIPK2 [2], this compound displayed a half-inhibitory concentration (IC50) of 3.6 ± 1.4 nM.

On to `Fc1cc(Nc2ccnc3ccc(Br)cc23)ccc1Cl` [Compound 5, 6-Bromo-N-(4-chloro-3-fluorophenyl)quinolin-4-amine], for which the LipE on RIPK2 [1] was 2.78. Moreover, the IC50 against RIPK2 [2] is 31.4 ± 6.2 nM.

`Cc1cnn(C)c1-c1ccc2nccc(Nc3ccc4scnc4c3)c2c1` [Compound 22, N-(6–(1,4-dimethyl-1H-pyrazol-5-yl)quinolin-4-yl)benzo[d]thiazol-5-amine] returned a LipE on RIPK2 [1] of 3.86. Besides, it took 19 ± 6.7 nM to reach half-maximal inhibition against RIPK2 [2] (IC50).

The compound `Brc1ccc2nccc(Nc3ccccn3)c2c1` [Compound 7, 6-Bromo-N-(pyridin-2-yl)quinolin-4-amine] yielded an IC50 on RIPK2 [2] above 1000 nM.

`COc1cc(Nc2ccnc3ccc(-c4ccncc4)cc23)cc(OC)c1OC` [Compound 31, 6-(Pyridin-4-yl)-N-(3,4,5-trimethoxyphenyl)quinolin-4-amine] displayed a LipE at RIPK2 [1] of 3.87. On RIPK2 [2], this compound registered an IC50 of 8.1 ± 3.9 nM.

Take `COc1cc(Nc2ccnc3ccc(-c4c[nH]nc4C)cc23)cc(OC)c1OC` [Compound 38, 6–(3-Methyl-1H-pyrazol-4-yl)-N-(3,4,5-trimethoxyphenyl)quinolin-4-amine]: the LipE on RIPK2 [1] was 3.79. The compound further had an IC50 against RIPK2 [2] of 19.2 ± 0.7 nM.

On to `COc1cc(Nc2ccnc3ccc(-c4cccc5[nH]ncc45)cc23)cc(OC)c1OC` [Compound 35, 6–(1 h-indazol-4-yl)-N-(3,4,5-trimethoxyphenyl)quinolin-4-amine], for which the LipE at RIPK2 [1] amounted to 3.24. Half-maximal inhibition on RIPK2 [2] (IC50) was put at 7.1 ± 4.7 nM.

As for `COc1cc(Nc2ccnc3ccc(-c4cn[nH]c4)cc23)cc(OC)c1OC` [Compound 37, 6–(1 h-pyrazol-4-yl)-N-(3,4,5-trimethoxyphenyl)quinolin-4-amine], on RIPK2 [1], the LipE stood at 4.22. Also, the IC50 against RIPK2 [2] worked out at 14.5 ± 5.6 nM.

In the case of `c1ccc2c(-c3ccc4nccc(Nc5ccc6scnc6c5)c4c3)cncc2c1` [Compound 29, N-(6-(isoquinolin-4-yl)quinolin-4-yl)benzo[d]thiazol-5-amine], the LipE at RIPK2 [1] was determined as 3.81. For the same compound, the IC50 against RIPK2 [2] was 17.2 ± 2.3 nM.

As for `Brc1ccc2nccc(Nc3ccc4scnc4c3)c2c1` [Compound 10, N-(6-bromoquinolin-4-yl)benzo[d]thiazol-5-amine], the LipE at RIPK2 [1] stood at 3.97. Besides, it took 12.2 ± 2.5 nM to reach half-maximal inhibition on RIPK2 [2] (IC50).

Turning to `c1cc(-c2ccc3nccc(Nc4ccc5scnc5c4)c3c2)c2cn[nH]c2c1` [Compound 27, N-(6-(1H-indazol-4-yl)quinolin-4-yl)benzo[d]thiazol-5-amine], the midpoint of inhibition against RIPK2 [2], the IC50, lay at 3.7 ± 0.4 nM.
